Counter-ions that a name gives are not always drawn.

For the assay, the target named is T1, untagged HECT of NEDD4 wild-type (WT) (E3 ligase) (Homo sapiens, UniProt P46934).
T1 construct: untagged HECT of NEDD4 wild-type (WT) (E3 ligase); made in house
T1 sequence (P46934 519-900 isoform P46934-4 limits assumed): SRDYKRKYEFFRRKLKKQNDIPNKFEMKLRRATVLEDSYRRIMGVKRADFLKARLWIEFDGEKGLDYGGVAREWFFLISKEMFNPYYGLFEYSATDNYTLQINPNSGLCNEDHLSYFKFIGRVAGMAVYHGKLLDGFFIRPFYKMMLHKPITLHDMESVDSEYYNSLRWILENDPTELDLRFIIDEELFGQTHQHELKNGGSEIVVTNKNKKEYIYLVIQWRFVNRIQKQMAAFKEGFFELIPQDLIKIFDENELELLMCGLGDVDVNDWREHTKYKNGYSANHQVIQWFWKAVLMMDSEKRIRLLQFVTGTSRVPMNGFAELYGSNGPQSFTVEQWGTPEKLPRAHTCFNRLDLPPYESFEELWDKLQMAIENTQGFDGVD
The assay can be described thus: In vitro ubiquitination assay TR-FRET based (self-ubiquitination of NEDD4). Format: biochemical. The note with it: at 11 μM; pre-incubated for 1 hour; AUC of 120 minutes kinetic; read-out: percentages of inhibition (NEDD4). From the text:
FIG. 1: TR-FRET kinetic assay performed with compound 12. […] Reactions were initiated with the addition of ATP. As labeled ubiquitin molecules become incorporated into chains they come into close proximity, resulting in energy transfer and increased signal to background detection. The activity of the enzyme is continuously and real time detected and it is expressed as % of signal/background during the time.
In order to quantitatively measure the self-ubiquitination process of the E3 HECT ligase NEDD4 the inventors employed a TR-FRET based assay. TR-FRET technology exploits the long-lasting emission of lanthanide fluorescence to interpose a short time-delay between FRET donor excitation and emission. This phenomenon enables to isolate real fluorescent signals from short-lived background emissions, thus reducing possible interference from compounds.
In the present study, elongation of the ubiqutin chain by NEDD4 is measured by adding bacterially expressed E1, His-tagged UBE2D3 (E2) and untagged HECT of NEDD4 wild-type (WT) (E3 ligase) (named in FIG. 1 as WT) enzymes to a mixture of Eu-cryptate ubiquitin, Cy5-ubiquitin and wild-type ubiquitin, combined in a ratio optimized for TR-FRET based conjugation (100×TRF-Ubiquitin Mix, SBB-TR0051). […] Bacterially expressed E1, His-tagged UBE2D3 (E2), untagged HECT NEDD4 (E3 ligase) WT and NEDD4 C/A enzymes were produced and purified as reported in E. Maspero et al. Methods Mol Biol. 1449:153-60 (2016).
Enzymatic incorporation of the labeled TRF-Ubiquitin mix into chains leads to an increase in fluorescence emission at 665 nm (emission of the acceptor Cy5-Ubiquitin, Emacceptor) and decrease at emission wavelength 620 nm (emission of the donor Eu-cryptate Ubiquitin, Emdonor).
The assay was performed in a 384-well plate format (Optiplate, Perkin Elmer, #6007290) on an automated liquid-handler (Hamilton STAR, Hamilton Robotics, Switzerland).
All compounds were dissolved in 100% DMSO and serially diluted in 96-well plates (from 100 μM to 0.005 μM).
Briefly, all reagents were thawed and kept on ice. A master mix containing E1, E2, E3 and TRF-Ubiquitin Mix (SBB-TR0051) diluted in the assay buffer (Tris-HCl pH 7.6 25 mM, NaCl 100 mM, MgCl2 5 mM and Tween 0.01%) is prepared and 50 μl/well is dispensed in a 384 well plate. 3 μl of compounds dissolved in DMSO in the above-indicated concentration range were added and pre-incubated for 1 hour. Final E1, E2 and E3 concentrations in the assay buffer (Tris-HCl pH 7.6 25 mM, NaCl 100 mM, MgCl2 5 mM and Tween 0.01%) were 30, 350 and 50 nanomolars, respectively. The reaction was initiated with the addition of ATP (22 μl of 2 mM ATP, JenaBioscience, NU-1010) and was allowed to proceed for 120 minutes, measuring fluorescence emission at 665 nm and 620 nm in real-time on an EnSpire microplate reader (Perkin Elmer).
Kinetic raw data were analyzed by Area Under the Curve (AUC) method using Prism GraphPad software.
% signal/background corresponds to the following equation: (Experimental signal−Background signal)/Background signal×100%
Experimental signal corresponds to the signal obtained by the enzymatic reaction in presence of the vehicle (DMSO) and/or the different compound concentrations. Background signal corresponds to the signal obtained by the enzymatic reaction in absence of ATP.
The relative potency of the compounds was evaluated by dose-response curves following the enzymatic reaction of HECT NEDD4 WT in real time for 120 minutes.
Percentage of inhibition is then determined by the equation: % inhibition=100×[1−(X)/(MAX)],
where MAX correspond to AUC of the vehicle (DMSO) treated enzyme, and X corresponds to the AUC of the compound treated enzyme.
For orientation: In TR-FRET formats the signal depends on donor and acceptor labels being close together.
For the compound `COC(=O)/C=C/CNCCCCN1c2ccccc2CCc2ccc(Cl)cc21` [Compound 62, Methyl (E)-4-[4-(3-chloro-10,11-dihydro-5H-dibenzo[b,f]azepin-5-yl)butylamino]but-2-enoate maleate], the inhibition at 11 µM is more than 50%.

On to `COCCOC(=O)/C=C/CNCCCCN1c2ccccc2CCc2ccc(Cl)cc21` [Compound 102, 2-methoxy-ethyl (E)-4-[4-(3-chloro-10,11-dihydro-dibenzo[b,f]azepin-5-yl)-butylamino]-but-2-enoate maleate], for which the inhibition at 11 µM was more than 50%.

For the compound `CCOC(=O)/C=C/CNCCCN1c2cc(Cl)ccc2C(=O)N(C)c2ccccc21` [Compound 27, Ethyl (E)-4-{[3-(3-chloro-10-methyl-11-oxo-10,11-dihydro-5H-dibenzo[b,e][1,4]diazepin-5-yl)propyl]amino}but-2-enoate maleate], the inhibition at 11 µM was more than 50%.

With `CCOC(=O)/C=C/CNCCCCN1c2ccccc2COc2ccc(Cl)cc21` [Compound 37, Ethyl (E)-4-{4-[7-chlorodibenzo[b,e][1,4]oxazepin-5(11H)-yl]butylamino}but-2-enoate maleate], the inhibition at 11 µM was more than 50%.

`N#C/C=C/CNCCCN1c2ccccc2CCc2ccc(Cl)cc21` [Compound 22, (E)-4-{[3-(3-chloro-10,11-dihydro-5H-dibenzo[b,f]azepin-5-yl)propyl]amino}but-2-enenitrile hydrochloride]: the inhibition at 11 µM was more than 50%.

Turning to `CCOC(=O)/C=C/CNCCCCN1c2ccc(CO)cc2CCc2ccc(Cl)cc21` [Compound 74, Ethyl (E)-4-[4-(7-Chloro-2-hydroxymethyl-10,11-dihydro-dibenzo[b,f]azepin-5-yl)-butylamino]-but-2-enoate maleate], the inhibition at 11 µM is more than 50%.

Consider `O=C(/C=C/CNCCCCN1c2ccccc2CCc2ccc(Cl)cc21)NOC1CCNCC1` [Compound 83, (E)-4-[4-(3-Chloro-10,11-dihydro-5H-dibenzo[b,f]azepin-5-yl)butylamino]-N-(4-piperidyloxy)-but-2-enamide dimaleate], for which the inhibition at 11 µM is more than 50%.

As to `CN(C/C=C/C#N)CCCCN1c2ccc(OCCOCc3cn(CCOCCOCCOCCNC(=O)CCCC[C@@H]4SC[C@@H]5NC(=O)N[C@@H]54)nn3)cc2CCc2ccc(Cl)cc21` [Compound 99, 5-((3aS,4S,6aR)-2-Oxo-hexahydro-thieno[3,4-d]imidazol-4-yl)-(2-{2-[2-(2-{4-[2-(7-chloro-5-{4-[((E)-3-cyano-allyl)-methyl-amino]-butyl}-10,11-dihydro-5H-dibenzo[b,f]azepin-2-yloxy)-ethoxymethyl]-[1,2,3]triazol-1-yl}-ethoxy)-ethoxy]-ethoxy}-ethyl)pentanamide], the inhibition at 11 µM is more than 50%.

For the compound `CC(=O)/C=C/CN(C)CCCCN1c2cc(Cl)ccc2C(=O)N(C)c2ccccc21` [Compound 57, 3-Chloro-10-methyl-5-(4-{methyl[(E)-4-oxopent-2-en-1-yl]amino}butyl)-5,10-dihydro-11H-dibenzo[b,e][1,4]diazepin-11-one maleate], the inhibition at 11 µM is more than 50%.

With `CCOC(=O)/C=C/CNCCCCN1c2cc(Cl)ccc2COc2ccccc21` [Compound 36, Ethyl (E)-4-{4-[3-chlorodibenzo[b,e][1,4]oxazepin-5(11H)-yl]butylamino}but-2-enoate maleate], the inhibition at 11 µM is more than 50%.

For `CCOC(=O)/C=C/CNCCCCCN1c2ccccc2CCc2ccc(Cl)cc21` [Compound 13, Ethyl (E)-4-[5-(3-chloro-10,11-dihydro-5H-dibenzo[b,f]azepin-5-yl)pentylamino]but-2-enoate maleate], the inhibition at 11 µM was more than 50%.

As to `CN(C/C=C/C(=O)c1ccccc1)CCCN1c2ccccc2CCc2ccc(Cl)cc21` [Compound 8, (E)-4-[3-(3-chloro-10,11-dihydro-5H-dibenzo[b,f]azepin-5-yl)propyl-methyl-amino]-1-phenyl-but-2-en-1-one], the inhibition at 11 µM was more than 50%.

For orientation: inhibition means the relative decrease from the control value, in per cent.

The values above are taken from patent US12403144B2, “HECT E3 ligase inhibitors and uses thereof” (IFOM FONDAZIONE ISTITUTO FIRC DI ONCOLOGIA MOLECOLARE, priority 2019, dated 2025).
